# Results as given in patent publication US10493077B2, “Fused imidazo-piperidine JAK inhibitor compound” (THERAVANCE BIOPHARMA R&D IP, LLC, priority 2017, dated 2019).
# Where two headings read alike, the source gives them in different places.
# Legend:
# [1] = Ocular pharmacokinetics in rabbit eyes; assay type: in vivo; conditions: for half-life: rabbit, vitreous, solution formulation in 2% 2-hydroxypropyl-β-cyclodextrin, intravitreal 50 μg/eye
# Procedure: The objective of this assay was to determine the pharmacokinetics of a test compound in rabbit ocular tissues.
# 1-(2-(6-(2-ethyl-5-fluoro-4-hydroxyphenyl)-4-fluoro-1H-indazol-3-yl)-1,4,6,7-tetrahydro-5H-imidazo[4,5-c]pyridin-5-yl)-2-morpholinoethan-1-one (1), prepared in Example 2, was dissolved in 2% 2-hydroxypropyl-β-cyclodextrin to attain a target concentration of 1 mg/mL. Bilateral intravitreal injection (50 μL/eye) of the solution of test compound was administered to New Zealand white rabbits (50 μg/eye). The test compound concentration was measured in ocular tissues: vitreous, aqueous, retina/choroid and iris-ciliary body at pre-determined time points post injection (30 min, 4 h, 1 d, 3 d, 7 d, 14 d). Two rabbits (four eyes) were dosed for each time point.
# A suspension formulation was prepared by combining compound 1 of Example 2 (Form 1), with 0.5% hydroxypropyl methylcellulose (HPMC E5)+0.02% Tween 80 in normal saline to attain a target concentration of 5 mg/mL, 20 mg/mL and 80 mg/mL for the 0.25 mg/eye, 1 mg/eye and 4 mg/eye doses respectively. Bilateral intravitreal injection (50 μL/eye) of the suspension of test compound was administered to New Zealand white rabbits. The test compound concentration was measured in ocular tissues as in the solution formulation assay at 30 min, 4 h, 24 h, 72 h, 7 d, 14 d, 28 d, 56 d and 84 d post injection. For the 4 mg/eye dose group, an additional time point at 168 d post injection was also collected. […] The clearance rate is consistent with the solubility of compound 1 in the vehicle and the ocular pharmacokinetic behavior in the solution formulation. […] Therefore, it is plausible that drug exposure is longer than that observed in this study. The drug concentration in plasma was measured and found to be at least 3 orders of magnitude lower than the concentration in vitreous tissue at all three concentrations.
# A suspension formulation was prepared by combining compound 1 of Example 5 (Form 2), with 0.5% hydroxypropyl methylcellulose (HPMC E5)+0.02% Tween 80 in normal saline to attain a target concentration of […], 1 mg/mL, 2 mg/mL and 20 mg/mL for the 0.02 mg/eye, 0.05 mg/eye, 0.1 mg/eye and 1 mg/eye doses respectively. Bilateral intravitreal injection (50 μL/eye) of the suspension of test compound was administered to Dutch Belted rabbits. The test compound concentration was measured in vitreous humor, aqueous humor, iris-ciliary body, retina, retinal pigment epithelial/choroidal cells and plasma at 30 min, 7 d, 14 d, 28 d, 42 d and 56 d post injection. […] Therefore, it is plausible that drug exposure is longer than that observed in this study. The drug concentration in plasma was measured and found to be at least 3 orders of magnitude lower than the concentration in vitreous tissue at all three concentrations. The 3 orders of magnitude correspond to a logarithmic scale (ie 1000 on a non-logarithmic scale).
# [2] = Dermal pharmacokinetics in mouse skin; assay type: in vivo; conditions: mice, model cream and ointment formulations, without detectable plasma exposure
# Text: The objective of this assay was to determine the epidermal, dermal and plasma pharmacokinetics of a test compound following a 24 hr exposure to intact mouse or mini-pig skin.
# Twenty-four hours prior to dosing the hair was shaved from the back of 25 g male Balb/c mice exposing an area at of least 6 cm^2 (about 10% of body surface) and, in a separate experiment, of 10 kg Gottingen mini-pigs exposing an area of at least 450 cm^2 (about 10% of body surface). At time zero, following isoflurane anesthesia, the test compound was applied to the back of mice or mini-pigs at a dose of 25 μL/cm^2. The skin was covered with an adhesive cover to prevent loss of compound to the cage or bedding.
# Following 24 h exposure, the backs were gently washed with soap and water to remove non-absorbed drug and patted dry. Immediately following this washing, blood was drawn by cardiac puncture from the mice and via venipuncture from the mini-pigs. The outer skin (stratum corneum) was then removed by adhesive tape stripping. Upon exposure of the epidermis a 0.5 cm punch biopsy was taken. The epidermis and dermis were quickly separated, weighed and snap frozen. […]
# Epidermis and dermis samples were homogenized in 1:10 (w/v) water using a Covaris ultrasonic homogenizer. Samples were extracted in 3 volumes of acetonitrile and quantified against a standard curve via LC-MS analysis.
# SRC = molecular target: T1, SRC (Homo sapiens, UniProt P12931); assay: Kinome screen, SRC; assay type: binding; conditions: screened at 1 μM
# T1 construct: made in house; host or cells: T7 phage in E. coli (BL21-derived) or HEK-293
# Procedure: Kinase-tagged T7 phage strains were grown in parallel in 24-well blocks in an E. coli host derived from the BL21 strain. E. coli were grown to log-phase and infected with T7 phage from a frozen stock (multiplicity of infection=0.4) and incubated with shaking at 32° C. until lysis (90-150 minutes). The lysates were centrifuged (6,000×g) and filtered (0.2 μm) to remove cell debris. The remaining kinases were produced in HEK-293 cells and subsequently tagged with DNA for qPCR detection.
# Streptavidin-coated magnetic beads were treated with biotinylated small molecule ligands for 30 minutes at room temperature to generate affinity resins for kinase assays. The liganded beads were blocked with excess biotin and washed with blocking buffer (SeaBlock (Pierce), 1% BSA, 0.05% Tween 20, 1 mM DTT) to remove unbound ligand and to reduce non-specific phage binding. […] Test compounds were prepared as 40× stocks in 100% DMSO and directly diluted into the assay. All reactions were performed in polypropylene 384-well plates in a final volume of 0.04 ml. […] The beads were then re-suspended in elution buffer (1×PBS, 0.05% Tween 20, 0.5 μM non-biotinylated affinity ligand) and incubated at room temperature with shaking for 30 minutes. The kinase concentration in the eluates was measured by qPCR.
# T1 sequence (P12931 whole entry): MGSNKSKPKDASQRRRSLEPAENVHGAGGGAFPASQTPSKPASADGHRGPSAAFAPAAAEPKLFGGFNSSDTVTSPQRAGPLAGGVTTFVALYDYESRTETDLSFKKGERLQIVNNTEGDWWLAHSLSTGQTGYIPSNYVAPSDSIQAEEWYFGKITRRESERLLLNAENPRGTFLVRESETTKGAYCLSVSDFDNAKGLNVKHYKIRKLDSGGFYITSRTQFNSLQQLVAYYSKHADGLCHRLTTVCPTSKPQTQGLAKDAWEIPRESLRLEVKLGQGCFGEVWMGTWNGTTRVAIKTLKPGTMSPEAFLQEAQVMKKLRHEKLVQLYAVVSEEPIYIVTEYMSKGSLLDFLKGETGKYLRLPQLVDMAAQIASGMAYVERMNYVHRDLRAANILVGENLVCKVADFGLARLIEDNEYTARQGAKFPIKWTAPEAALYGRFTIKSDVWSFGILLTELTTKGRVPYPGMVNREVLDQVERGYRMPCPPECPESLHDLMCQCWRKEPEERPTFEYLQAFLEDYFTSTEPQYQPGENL
smiles,measurement,setting,value
"CCc1cc(O)c(F)cc1-c1cc(F)c2c(-c3nc4c([nH]3)CCN(C(=O)CN3CCOCC3)C4)n[nH]c2c1 [Compound 1, 1-(2-(6-(2-ethyl-5-fluoro-4-hydroxyphenyl)-4-fluoro-1H-indazol-3-yl)-1,4,6,7-tetrahydro-5H-imidazo[4,5-c]pyridin-5-yl)-2-morpholinoethan-1-one]",ocular exposure at 24 weeks,"[1]; Form 1 suspension, intravitreal 4 mg/eye, New Zealand white rabbits",Sustained exposure
same,drug concentration in plasma lower than concentration in vitreous tissue,"[1]; Form 1 suspension, intravitreal 0.25, 1 and 4 mg/eye, New Zealand white rabbits",at least 3 orders of magnitude
same,ocular exposure at 12 weeks (84 d),"[1]; Form 1 suspension, intravitreal, all doses (0.25, 1, 4 mg/eye), New Zealand white rabbits",Robust sustained exposure
same,drug concentration in plasma lower than concentration in vitreous tissue,"[1]; Form 2 suspension, intravitreal 0.02, 0.05, 0.1 and 1 mg/eye, Dutch Belted rabbits",at least 3 orders of magnitude
same,change of drug concentration in vitreous tissue from 30 min to last time point tested,"[1]; Form 2 suspension, intravitreal 0.02-1 mg/eye, Dutch Belted rabbits, last time point 28-56 d",very gradual decrease
same,half-life,"[1]; New Zealand white, 50 μg/eye, New Zealand white rabbits, read-out: terminal half-life, vitreous tissue (converted)",~48 h
same,concentration in plasma versus vitreous tissue,"[1]; rabbit eyes, single intravitreal injection (summary of Assay 7)",at least three orders of magnitude lower
same,half-life,"[1]; New Zealand white rabbits, read-out: half-life of initial decrease in concentration, vitreous tissue (converted)",~9 h
same,duration of sustained dermal levels,[2],at least 2 days
same,inhibition at 1 µM,SRC,93%
